Experimental findings from patent US20230128137A1, “BENZO FIVE-MEMBERED CYCLIC COMPOUND” (MEDSHINE DISCOVERY INC., priority 2020, published 2023) are described below.

Broadly, the IC50 is the concentration that inhibits the measured activity by half. The term half-life denotes how long it takes for the measured level to halve. Higher therefore signals slow decline. As usually defined, the CLint scaled is a measure of how fast metabolising enzymes remove a compound, apart from limits set by blood flow. Low readings indicate slow turnover, high ones rapid turnover.

Each structure is given as a SMILES string.

The subject of one series is RS4;11 cells. The series can be described thus: CTG (CellTiter-Glo) test of inhibition of RS4;11 cell proliferation. To be noted: Homo sapiens, 72 hours incubation. The format is cell-based. The method, then:
2.1 Experimental objectives: To obtain the IC50 value of the test compound in RS4;11 cell lines;
2.2 incubation time: 72 hours;
2.3 experimental method: CTG (Cell Titer-Glo™ Luminescent Cell Viability Assay);
a. when the cells were fused to 80%, the cells were collected and counted;
b. RS4; 11 cell suspension was diluted to 5000 cells/well and 20 uls of cell suspension was seeded in each well of 384-well plate;
c. the cell plates were placed back to 37° C. and incubated in a 5% carbon dioxide incubator for 24 hours;
d. the test compound was prepared into DMSO solution, and 5 μL of each was added to the designated well of the test plate, and the final concentration of DMSO solution was 0.5%;
e. initiation cell viability was detected by CTG;
f. the test plate was put back into the incubator and incubated for another 72 hours;
g. after 72 hours incubation, CellTiter-Glo™ luminescent cell viability assay was completed according to the manufacturer's manual;

The next series has as its target T1, Bcl-xL (Homo sapiens, UniProt Q07817).
T1 construct: Human recombinant Bcl-xL (amino acid 1-209); purchased Reaction Biology Corporation (RBC) APT-11-442; host or cells: E. coli
The series can be described thus: HTRF competition test, Bcl-xL with FAM-Bad peptide (enzymology experiment). The format is binding. To be noted: 3 nM Bcl-xL and 40 nM FAM-Bad, read-out: IC50 (nM) for inhibition of Bcl-xL enzyme. The method, then: (§1) This experiment was based on the competition between fluorescently-labeled Bak/Bad/Noxa peptides and GST-labeled Bcl family proteins. The fluorescence detection method based on HTRF was to observe the binding degree by using the fluorescence ratio between Tb-labeled anti-GST and FAM-labeled peptides. This peptide binds to the surface of the Bcl family protein pocket, which is essential for its anti-apoptotic function.
(§2) 1.1 Experimental reagents: analysis buffer: 20 mM potassium phosphate, pH 7.5, 50 mM sodium chloride, 1 mM EDTA, 0.005% Tritonx-100 and 1% DMSO.
(§3) 1.2 Probe: 5,6-FAM-peptide
(§4) 1.4 Experimental Conditions:
3 nM Bcl-xL and 40 nM FAM-Bad
(§5) a) The Bcl enzyme reaction solution was prepared in the newly prepared analysis buffer;
(§6) b) the Bcl enzyme reaction solution was provided;
(§7) c) the compound was first prepared into a 100% dimethyl sulfoxide solution, and then the compound solution was mixed with the Bcl enzyme reaction solution using (Echo550; nanoliter range) technology, and co-incubated for 10 minutes;
(§8) d) the FAM peptide solution was added.
(§9) e) the mixed solution was gently stirred in dark and room temperature, and co-cultured for 10 minutes.
(§10) f) Anti-GST solution was added.
(§11) g) The mixed solution was gently stirred in dark and room temperature, and co-cultured for 1 hour.
(§12) h) The HTRF high-frequency fluorescence ratio was tested, and the IC50 values were calculated.
On the technique in general: Time-resolved FRET reads energy transfer from a long-lived donor to a nearby acceptor.

The target in the next series is T2, Bcl-2 (Homo sapiens, UniProt P10415).
T2 construct: Human recombinant Bcl-2 (amino acid 1-207); purchased Reaction Biology Corporation (RBC) APT-11-441; host or cells: E. coli
The series can be described thus: HTRF competition test, Bcl-2 with FAM-BAK peptide (enzymology experiment). The series is classed as binding. To be noted: 4 nM Bcl-2 and 100 nM FAM-BAK, read-out: IC50 (nM) for inhibition of Bcl-2 enzyme. How it is done: as §1, §2, §3, §4
4 nM Bcl-2 and 100 nM FAM-BAK
as §5, §6, §7, §8, §9, §10, §11, §12

Series [1] in a line: Liver microsome metabolic stability in vitro, CD-1 mouse. The format is in vitro ADME. As to conditions: CD-1 mouse liver microsomes; for Remaining (T = 60 min): 60 min incubation. How it is done:
(§13) 3.2 preparation of nicotinamide adenine dinucleotide phosphate cofactor solution: an appropriate amount of NADPH powder was weighed and diluted into 10 mM magnesium chloride solution (working solution concentration: 10 unit/mL; final concentration of reaction system: 1 unit/mL);
(§14) 3.3 preparation of liver microsomes: an appropriate concentration working solution of liver microsomes (human, SD rat, CD-1 mouse, beagle dog) was prepared in 100 mM potassium phosphate buffer;
(§15) 3.4 preparation of quenching solution: cold (4° C.) acetonitrile containing 200 ng/mL tolbutamide and 200 ng/mL labetalol as internal standard (IS) was used as quenching solution;
(§16) 3.5 experimental operation:
(§17) a. empty “incubation” plates T60 and NCF60 were preheated for 10 minutes;
(§18) b. the liver microsomes were diluted to 0.56 mg/mL with 100 mM phosphate buffer;
(§19) c. 445 μL of microsomal working solution (0.56 mg/mL) was transferred to the preheated “incubation” plates T60 and NCF60, and then the“incubation” plates T60 and NCF60 were preincubated for 10 min with continuous shaking at 37° C. 54 μL of liver microsomes were transferred to a blank plate, and 6 μL of NAPDH cofactor was added to the blank plate, and then 180 μL of quenching solution was added thereto;
(§20) e. for NCF60 plate, 50 μL of buffer was added thereto and the mixture was fully mixed for three times. Timing was started; the plate was shaken at 37° C. for 60 minutes;
(§21) f. in “quenching” plate TO, 180 μL of quenching solution and 6 μL of NAPDH cofactor were addded to make sure that the plate was cooled down to prevent evaporation;
(§22) g. for T60 plates, the mixture was fully mixed for three times, and 54 μL of mixture was immediately transferred to the “quenching” plate at the 0 min time point. 44 μL of NAPDH cofactor was then added to the culture plate (T60). Timing was started; the plate was shaken at 37° C. for 60 minutes;
(§23) h. at 5, 10, 20, 30 and 60 min, 180 μL of quenching solution was added to the “quenching” plate, and the mixture was mixed for one time, and 60 μL of sample was continuously transferred from the T60 plate to the “quenching” plate at each time point;
(§24) i. for NCF60: the mixture was mixed for one time, and 60 μL of sample was transferred from the NCF60 culture dish to the “quenching” plate containing quenching solution at 60 minutes time point;
(§25) j. all sampling plates were shaked for 10 minutes, then centrifuged at 4000 rpm for 20 minutes at 4° C.;
(§26) k. 60 μL of supernatant was transferred into 180 μL of HPLC water and stirred with a plate shaker for 10 min;
(§27) 1. before LC-MS/MS analysis, each bioanalysis plate was sealed and shaked for 10 minutes.
(In general: Microsomes from liver hold many membrane-bound enzymes, among them those of drug oxidation.)

The nature of series [2]: Liver microsome metabolic stability in vitro, SD rat. As to conditions: SD rat liver microsomes; for Remaining (T = 60 min): 60 min incubation. The series is classed as in vitro ADME. The method, then: as §13, §14, §15, §16, §17, §18, §19, §20, §21, §22, §23, §24, §25, §26, §27
A short description of series [3]: Liver microsome metabolic stability in vitro, beagle dog. The series is classed as in vitro ADME. As to conditions: beagle dog liver microsomes; for Remaining (T = 60 min): 60 min incubation. The method, then: as §13, §14, §15, §16, §17, §18, §19, §20, §21, §22, §23, §24, §25, §26, §27
Series [4] can be described thus: Liver microsome metabolic stability in vitro, human. The format is in vitro ADME. As to conditions: human liver microsomes; for Remaining (T = 60 min): 60 min incubation. The method, then: as §13, §14, §15, §16, §17, §18, §19, §20, §21, §22, §23, §24, §25, §26, §27

T1 sequence (Q07817 1-209): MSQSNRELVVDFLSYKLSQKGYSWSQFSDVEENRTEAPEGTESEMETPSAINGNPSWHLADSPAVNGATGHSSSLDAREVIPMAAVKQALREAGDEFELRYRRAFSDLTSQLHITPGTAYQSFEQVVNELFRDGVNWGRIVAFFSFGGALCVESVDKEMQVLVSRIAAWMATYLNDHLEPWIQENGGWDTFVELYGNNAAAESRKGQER
T2 sequence (P10415 1-207): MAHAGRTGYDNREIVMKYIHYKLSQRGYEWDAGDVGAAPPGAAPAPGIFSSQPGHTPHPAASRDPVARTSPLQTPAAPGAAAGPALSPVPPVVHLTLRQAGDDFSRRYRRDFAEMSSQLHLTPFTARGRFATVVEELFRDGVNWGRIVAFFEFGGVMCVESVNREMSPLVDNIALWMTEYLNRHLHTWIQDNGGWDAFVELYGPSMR

In the series on RS4;11 cells, `CC1(C)CCC(CN2CCN(c3ccc(C(=O)NS(=O)(=O)c4cc([N+](=O)[O-])c(NCC5CCOCC5)c5[nH]ccc45)c(Oc4cnc5[nH]ccc5c4)c3)CC2)=C(c2ccc(Cl)cc2)C1` [Compound 1] had an IC50 of 1.4 nM.
Take `CC1(C)CCC(CN2CC=C(c3ccc(C(=O)NS(=O)(=O)c4cc([N+](=O)[O-])c(NCC5CCOCC5)c5[nH]cnc45)c(Oc4ccc5[nH]ccc5c4)c3)CC2)=C(c2ccc(Cl)cc2)C1` [Compound 5]: the IC50 worked out at 504 nM on Bcl-xL, 2.6 nM on Bcl-2 and 10.2 nM in the series with RS4;11 cells.
For the compound `Cn1cnc2c(NCC3CCOCC3)c([N+](=O)[O-])cc(S(=O)(=O)NC(=O)c3ccc(N4CCN(CC5=C(c6ccc(Cl)cc6)CC(C)(C)CC5)CC4)cc3Oc3cnc4[nH]ccc4c3)c21` [Compound 6], the IC50 on Bcl-xL is 173 nM; on Bcl-2 it was 2.4 nM; in the series with RS4;11 cells it was 4.6 nM.
With `CC1(C)CCC(CN2CCN(c3ccc(C(=O)NS(=O)(=O)c4cc([N+](=O)[O-])c(NCC5COCCO5)c5[nH]cnc45)c(Oc4cnc5[nH]ccc5c4)c3)CC2)=C(c2ccc(Cl)cc2)C1` (centres unmarked) [Compound 7], half-maximal inhibition in the series with RS4;11 cells (IC50) required 6.8 nM.
For `Cn1cnc2c(S(=O)(=O)NC(=O)c3ccc(N4CCN(CC5=C(c6ccc(Cl)cc6)CC(C)(C)CC5)CC4)cc3Oc3cnc4[nH]ccc4c3)cc([N+](=O)[O-])c(NCC3CCOCC3)c21` [Compound 8], the values for the IC50 at Bcl-xL, on Bcl-2 and with RS4;11 cells were 1110 nM, 1.3 nM and 6.5 nM, respectively.
In the same order, the values of `Cc1nc2c(S(=O)(=O)NC(=O)c3ccc(N4CCN(CC5=C(c6ccc(Cl)cc6)CC(C)(C)CC5)CC4)cc3Oc3cnc4[nH]ccc4c3)cc([N+](=O)[O-])c(NCC3CCOCC3)c2[nH]1` [Compound 9] are 326 nM, 3.6 nM and 1.9 nM.
On to `O=C(O)Cc1ccccc1Nc1c(Cl)cccc1Cl` [Diclofenac], for which, in series [1], the half-life at 1 µM was 63.5 min and the “Remaining (T = 60 min)” value was 53.0%. In series [2], the CLint scaled at 1 µM came out at 10.4 L/h/kg, the T1/2 is 14.4 min and the “Remaining (T = 60 min)” value amounted to 5.2%. Further, in series [3], the CLint scaled at 1 µM was < 0.828 L/h/kg, the half-life at 1 µM was > 145 min and the “Remaining (T = 60 min)” value is reported as 101%. The “Remaining (T = 60 min)” value in series [4] was found to be 0.0%.
Regarding `C[C@]12CC[C@H]3[C@@H](CCC4=CC(=O)CC[C@@]43C)[C@@H]1CC[C@@H]2O` [Testosterone], the CLint scaled at 1 µM amounted to 82.1 L/h/kg in series [1], 131 L/h/kg in series [2], 4.86 L/h/kg in series [3] and 9.3 L/h/kg in series [4] (human). For the same compound, the T1/2 in series [1] is recorded as 4.0 min; in series [2], 1.1 min; in series [3], 24.6 min. Moreover, the “Remaining (T = 60 min)” value worked out at 0.0% in series [1], 0.0% in series [2], 19% in series [3] and 5.7% in series [4]. For the same compound, in series [4] (human), the half-life at 1 µM came out at 8.9 min.
